Source: US20210290610A1, “COMBINATION OF FXR AGONISTS” (priority 2016, published 2021)

Assays:
[1] = tested on: STAM Model of Non-alcoholic Steatohepatitis; test: In vivo efficacy study in the STAM model of non-alcoholic steatohepatitis; design: species or system C57BL/6 mice; details: for NAFLD Activity Score (NAS) compared with the STAM-Vehicle group: FIG. 1.1
Description: Example: In Vivo Efficacy Study of cenicriviroc in combination with Compound A (“NVP-CH-4”) and Compound B (“NVP-CH-5”) in the STAM Model of Non-alcoholic Steatohepatitis (Treatment period: 6 to 9 wks or 9 to12 wks)
The study involves 14-day-pregnant C57BL/6 mice. NASH was established by a single subcutaneous injection of […] streptozotocin (Sigma, USA) after birth and feeding with a high fat diet (HFD, 57% kcal fat, CLEA Japan, Japan) ad libitum after 4 weeks of age (day 28±2). Randomization of NASH mice into six groups of 12 mice at 6 weeks of age (day 42±2) and six groups of 12 mice at 9 weeks of age (day 63±2), the day before the start of treatment, respectively. NASH animals were dosed from age 6-9 weeks (Study 1), or from age 9-12 weeks (Study 2) with either: vehicle, cenicriviroc, Compound A (“NVP-CH-4”), Compound B (“NVP-CH-5”), cenicriviroc+Compound A or cenicriviroc+Compound B. A non-disease vehicle-control group of 12 mice was included in both Study 1 and Study 2. These animals were fed with a normal diet (CE-2; CLEA Japan) ad libitum.
PK samples were collected and stored at −60° C. Animals were dosed according to the dosing schedule below. Each animal was sacrificed 5 hours after last morning dose on the last day of study treatment (the evening dose of cenicriviroc or vehicle […] that day due to sacrifice).
Dosing: • Cenicriviroc was prepared in 0.5% (w/v) methylcellulose with 1% Tween® 80 in sterile water for injection (USP). • Compound A and Compound B were prepared in 0.5% (w/v) methylcellulose (400 cPs) aqueous solution containing 0.5% (v/v) polysorbate 80, NF, in reverse osmosis water. • In general, cenicriviroc monotherapy was administered twice daily, 12 hours apart (AM and PM). For Compound A or Compound B monotherapy groups, drug was administered once daily in the morning with vehicle alone in the evening (12 hours after the morning dose).
End of Treatment Measurements: Mice were sacrificed at 9 weeks of age (study 1) or at 12 weeks of age (study 2).
The following biochemical assays were performed: Non-fasting blood glucose in whole blood by Life Check (Eidia, Japan); serum ALT by FUJI DRI-CHEM (Fujifilm, Japan); serum triglyceride; serum MCP-1, RANTES (CCLS) and MIP-1α/MIP-1 quantification by a commercial ELISA kit; liver triglyceride by Triglyceride E-test kit (Wako, Japan); liver hydroxyproline quantification by hydrolysis method; histological analyses for liver section; HE staining and estimation of NAFLD Activity score; Sirius-red staining and estimation of fibrosis area (with and without perivascular space subtracted); oil red staining and estimation of fat deposition area; F4/80 immunohistochemistry staining and estimation of inflammation area; alpha-SMA immunohistochemistry staining and estimation of α-SMA positive area Gene expression assays using total RNA from the liver.
Statistical tests were performed using one-way ANOVA followed by Dunnett's test and the Mann-Whitney test, as appropriate, for the multiple group comparisons. P values <0.05 are considered statistically significant.

[2] = tested on: NASH in adults with liver fibrosis; details: cited from earlier work
[3] = tested on: PBC; details: PBC patients; cited from earlier work
[4] = tested on: nonalcoholic steatohepatitis patients; details: cited from earlier work
[5] = Study 1, treatment week 6-9, CVC 50 mg/kg AM and PM, Compound A 0.1 mg/kg, Compound B 10 mg/kg
[6] = NASH adults with liver fibrosis, one year
[7] = Study 2, treatment week 9-12, same doses

CCCCOCCOc1ccc(-c2ccc3c(c2)/C=C(/C(=O)Nc2ccc([S@@+]([O-])Cc4cncn4CCC)cc2)CCCN3CC(C)C)cc1 [CVC, (S,E)-8-(4-(2-butoxyethoxy)phenyI)-1-(2-methylpropyl)-N-(4-(((1-propyl-1H-imidazol-5-yl)methyl)sulfinyl)phenyl)-1,2,3,4-tetrahydrobenzo[b]azocine-5-carboxamide]
NAFLD Activity Score (NAS) compared with the STAM-Vehicle group [1, 5]: significant reductions in NAS
fibrosis [2, 6]: reduction of fibrosis
improvement of NAS [2, 6]: no significant impact
adverse effects ([2]; patients): can induce fatigue or diarrhea in a small part of the patients

O=C(O)c1cc(F)c2nc(N3C4CCC3CC(OCc3c(-c5ccccc5OC(F)(F)F)noc3C3CC3)C4)sc2c1 (centres unmarked) [Compound A, 2-[3-({5-cyclopropyl-3-[2-(trifluoromethoxy)phenyl]-1,2-oxazol-4-yl}methoxy)-8-azabicyclo[3.2.1]octan-8-yl]-4-fluoro-1,3-benzothiazole-6-carboxylic acid]
NAFLD Activity Score (NAS) compared with the STAM-Vehicle group [1, 5]: significant reductions in NAS
NAFLD Activity Score (NAS) compared with the STAM-Vehicle group [1, 7]: significant reductions in NAS

Cn1nc(C(=O)N(Cc2ccccc2)Cc2ccc(C(=O)O)cc2)c2c1-c1cc(Cl)ccc1OC2 [Compound B, 4-((N-benzyl-8-chloro-1-methyl-1,4-dihydrochromeno[4,3-c]pyrazole-3 carboxamido)methyl)benzoic acid]
NAFLD Activity Score (NAS) compared with the STAM-Vehicle group [1, 5]: significant reductions in NAS
inflammatory cell infiltration score compared with the STAM-Vehicle group ([1]; Study 1, week 6-9, FIG. 1.2): significant reductions in the inflammatory cell infiltration score
NAFLD Activity Score (NAS) compared with the STAM-Vehicle group [1, 7]: significant reductions in NAS

C[C@H](CCC(=O)O)[C@H]1CC[C@H]2[C@@H]3[C@@H](O)C[C@@H]4C[C@H](O)CC[C@]4(C)[C@H]3CC[C@]12C [UDCA, Ursodeoxycholic acid]
population that does not respond [3]: 30-40%

CC[C@H]1[C@@H](O)[C@@H]2[C@H](CC[C@]3(C)[C@@H]([C@H](C)CCC(=O)O)CC[C@@H]23)[C@@]2(C)CC[C@@H](O)C[C@@H]12 [obeticholic acid, Obeticholic acid]
safety concerns of long term administration [4]: can be associated with pruritus, as well as with increased LDL cholesterol
